From patent publication EP0329053A1, “Choline esters of glycerophosphoric acids” (MAGIS FARMACEUTICI S.p.A., priority 1988, dated 1989)

Experiment: Acute toxicity by the Weill method
Conditions: in vivo, mouse, read-out: LD₅₀
Description: The acute toxicity of the compounds according to the invention was studied on the mouse by the Weill method (Weill C.S. Biomed. J. 8 249 (1952)). […] For the compound of formula (I) wherein n=1 and R, R¹ equal to H, the LD₅₀ is higher than 2000 mg/kg.

Compound: C[N+](C)(C)CCOP(=O)([O-])OP(=O)(O)OCC(O)CO (stereo not drawn) [choline α-glyceryl disphosphate]
- LD50: > 2000 mg/kg
